From patent US20180085341A1, “METHODS FOR TREATING CANCER” (BOSTON BIOMEDICAL, INC., priority 2015, published 2018)

Key:
[1] = open label phase Ib dose-escalation study, safety, tolerability and RP2D; type: in vivo, human; settings: in combination with weekly paclitaxel
Method: In the open label phase lb dose-escalation study, the safety, tolerability and recommended phase 2 dose (RP2D) of 2-acetylnaphtho[2,3-b]furan-4,9-dione in combination with paclitaxel were assessed in adult patients with advanced solid tumors.
The effects of 2-acetylnaphtho[2,3-b]furan-4,9-dione in combination with paclitaxel were clinically evaluated. […] Phase II accrual to disease-specific cohorts included patients with advanced, heavily pre-treated metastatic non-small cell lung cancer (NSCLC).

[2] = test system: Stat3 pathway; settings: cellular; according to U.S. Pat. No. 8,877,803; cited from earlier work
[3] = test system: p-Stat3 and β-catenin; test: cancer stemness biomarkers in human colon cancer xenograft tumor (SW480), immunofluorescence; type: in vivo; settings: SW480 xenograft in nude mice, e.g. 50 mg/kg BID oral gavage, tumors harvested 24 hours after first dosing, FIG. 5
Method: The effects of 2-acetylnaphtho[2,3-b]furan-4,9-dione, a compound of formula (I), on cancer stem cell markers was examined in cancer xenograft models with and without paclitaxel.
Human cancer cells were subcutaneously implanted into the right flank of 5-7 weeks old female athymic nude mice. When tumor size reached 200 mm^3, animals were treated with 2-acetylnaphtho[2,3-b]furan-4,9-dione, for example, at 50 mg/kg (BID) by oral gavage (n=3/group), paclitaxel, or a combination of 2-acetylnaphtho[2,3-b]furan-4,9-dione and paclitaxel. Tumors were harvested at 24 hours after first dosing.
The harvested tissues were fixed in 3.7% neutral buffered formaldehyde at 4° C. for overnight. The paraffin was embedded, cut to about 5 microns, and affixed onto positively-charged slides. After being baked and de-paraffinized, the slides with tumor or control tissues were incubated in 10 mM sodium citrate (pH 6.0) for 10 minutes. After antigen retrieval, slides were probed with primary antibodies P-STAT3 (rabbit, Cell Signaling, 1:100), β-Catenine (mouse, Santa Cruz, 1:400) at 4° C. overnight, and then Alexa Fluor fluorescent dyes-conjugated secondary antibodies (1:500, Invitrogen). After mounting, the slides with ProLong mounting medium with DAPI (Invitrogen) were examined under a Zeiss fluorescence microscope with 20× objective, and analyzed with Zen software.

[4] = test system: human lung cancer xenograft (A549); test: human lung cancer xenograft (A549) model, metabolic tumor volume; type: in vivo, mice; settings: 2-acetylnaphtho[2,3-b]furan-4,9-dione 100 mg/kg daily oral, paclitaxel 10.0 mg/kg q3d iv, relative to control, FIG. 7
Method: The effects of 2-acetylnaphtho[2,3-b]furan-4,9-dione was examined in a human lung cancer xenograft (A549) model. Human lung cancer cells were implanted in mice and the resulting tumors were allowed to grow to a pre-determined size. Mice were treated orally with vehicle, 2-acetylnaphtho[2,3-b]furan-4,9-dione (100 mg/kg, daily, oral), paclitaxel (10.0 mg/kg, q3d, iv), or the combination of 2-acetylnaphtho[2,3-b]furan-4,9-dione (100 mg/kg, daily, oral) and paclitaxel (10.0 mg/kg, q3d, iv). The tumor sizes were monitored.

[5] = test system: cancer patients (CRC patients); test: clinical trials, survival by Stat3/pStat3 expression level; type: in vivo, human; settings: after treatment in clinical trials; at least in CRC patients
Excerpt: Thus, the higher the level of pStat3 found in a cancer patient before treatment, at least in CRC patients, the higher the overall survival (OS) upon administering a treatment comprising a compound of formula (I).

[6] = test system: patients with advanced, previously treated pancreatic adenocarcinoma; settings: weekly paclitaxel alone; Oettle et al, Anticancer Drugs 2000; cited from earlier work
[7] = test system: pStat3 and β-catenin; test: cancer stemness biomarkers in pancreatic adenocarcinoma cancer stem cells (Panc-1) in vitro; type: cell-based, human; settings: Panc-1 cancer stem cells, FIG. 6

SMILES | recommended phase 2 dose of 2-acetylnaphtho[2,3-b]furan-4,9-dione [1] | IC50 [2] | expression of p-Stat3 and β-catenin stem cell markers [3] | metabolic tumor volume [4] | overall survival of patients with higher expression levels of Stat3 [5] | median overall survival (mOS) [6] | staining for stem cell markers (pStat3, β-catenin) [7]
CC(=O)c1cc2c(o1)C(=O)c1ccccc1C2=O [2-acetylnaphtho[2,3-b]furan-4,9-dione] | 480 mg BID | ~250 nM | dramatically reduced expression | reduced metabolic tumor volume relative to control | prolonged overall survival | – | –
CC(=O)O[C@H]1C(=O)[C@@]2(C)[C@H]([C@H](OC(=O)c3ccccc3)[C@]3(O)C[C@H](OC(=O)[C@H](O)[C@@H](NC(=O)c4ccccc4)c4ccccc4)C(C)=C1C3(C)C)[C@]1(OC(C)=O)CO[C@@H]1C[C@@H]2O [paclitaxel] | – | – | – | reduced metabolic tumor volume relative to control | – | about 17.5 weeks | enhanced staining
